Results reported in US11661410B2 (GLOBAL BLOOD THERAPEUTICS, INC., priority 2017, dated 2023).
Where a name gives a salt, the structure may show the parent alone.

Target: muscarinic M2 receptor (Homo sapiens (Human), UniProt P08172)
Assay: Safety pharmacological profiling: muscarinic M2 receptor ligand binding
Conditions: compound at 10 μM, in duplicate; ligand binding to cell membranes; read-out: Muscarinic M2 percent inhibition

muscarinic M2 receptor, sequence (P08172 whole entry): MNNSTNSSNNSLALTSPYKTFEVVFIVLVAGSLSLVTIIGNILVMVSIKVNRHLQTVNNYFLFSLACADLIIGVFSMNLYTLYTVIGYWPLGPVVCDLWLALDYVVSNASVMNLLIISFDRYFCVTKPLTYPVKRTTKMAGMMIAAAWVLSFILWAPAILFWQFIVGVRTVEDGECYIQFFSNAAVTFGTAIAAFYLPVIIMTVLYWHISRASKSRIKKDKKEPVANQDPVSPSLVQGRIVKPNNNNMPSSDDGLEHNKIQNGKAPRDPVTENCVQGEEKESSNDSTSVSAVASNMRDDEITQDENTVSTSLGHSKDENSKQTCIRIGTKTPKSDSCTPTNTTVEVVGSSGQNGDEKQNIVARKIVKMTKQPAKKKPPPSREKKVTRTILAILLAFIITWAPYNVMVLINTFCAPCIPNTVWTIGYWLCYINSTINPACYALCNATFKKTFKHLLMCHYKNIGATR

Structure (SMILES)	inhibition at 10 µM
CCNc1c2c(nc3cc(OCCCN4CCCC4)c(OC)cc13)CCC2 [drawing 583]	62%
COc1cc2nc3c(c(NCC4CNC4)c2cc1OC)CCC3 [drawing 585]	65%
COc1cc2nc3c(c(N[C@@H]4CCCCNC4)c2cc1OC)CCC3 [drawing 589]	80%
COc1cc2nc3c(c(NC4CCNCC4)c2cc1OC)CCC3 [drawing 587]	62%
COc1cc2nc3c(c(NC4CCN(C(C)C)CC4)c2cc1OC)CCC3	78%
COc1cc2c(NC(C)C)c3c(nc2cc1OCCCN1CCCC1)CCC3 [drawing 582]	51%
COc1cc2nc3c(c(N[C@@H]4CCCNC4)c2cc1OC)CCC3 [drawing 586]	76%
COc1cc2nc3c(c(N[C@H]4CNC[C@@H](C)C4)c2cc1OC)CCC3 [drawing 588]	75%

Target: mu (μ) opiate (OP3) receptor (Homo sapiens (Human), UniProt P35372)
Assay: biochemical
Type: binding
Conditions: read-out: Mu Opiate percent inhibition

Structure (SMILES)	inhibition at 10 µM
COc1cc2nc3c(c(N[C@@H]4CCCCNC4)c2cc1OC)CCC3 [drawing 597]	73%
COc1cc2nc3c(c(NC4CCNCC4)c2cc1OC)CCC3 [drawing 595]	48%
COc1cc2nc3c(c(N[C@@H]4CCCNC4)c2cc1OC)CCC3 [drawing 594]	44%
CCNc1c2c(nc3cc(OCCCN4CCCC4)c(OC)cc13)CCC2 [drawing 591]	92%
COc1cc2nc3c(c(NCC4CNC4)c2cc1OC)CCC3 [drawing 593]	12%
COc1cc2nc3c(c(N[C@H]4CNC[C@@H](C)C4)c2cc1OC)CCC3 [drawing 596]	23%
COc1cc2c(NC(C)C)c3c(nc2cc1OCCCN1CCCC1)CCC3 [drawing 590]	92%

Target: G9a (Homo sapiens (Human), UniProt Q96KQ7)
Sequence (Q96KQ7 whole entry): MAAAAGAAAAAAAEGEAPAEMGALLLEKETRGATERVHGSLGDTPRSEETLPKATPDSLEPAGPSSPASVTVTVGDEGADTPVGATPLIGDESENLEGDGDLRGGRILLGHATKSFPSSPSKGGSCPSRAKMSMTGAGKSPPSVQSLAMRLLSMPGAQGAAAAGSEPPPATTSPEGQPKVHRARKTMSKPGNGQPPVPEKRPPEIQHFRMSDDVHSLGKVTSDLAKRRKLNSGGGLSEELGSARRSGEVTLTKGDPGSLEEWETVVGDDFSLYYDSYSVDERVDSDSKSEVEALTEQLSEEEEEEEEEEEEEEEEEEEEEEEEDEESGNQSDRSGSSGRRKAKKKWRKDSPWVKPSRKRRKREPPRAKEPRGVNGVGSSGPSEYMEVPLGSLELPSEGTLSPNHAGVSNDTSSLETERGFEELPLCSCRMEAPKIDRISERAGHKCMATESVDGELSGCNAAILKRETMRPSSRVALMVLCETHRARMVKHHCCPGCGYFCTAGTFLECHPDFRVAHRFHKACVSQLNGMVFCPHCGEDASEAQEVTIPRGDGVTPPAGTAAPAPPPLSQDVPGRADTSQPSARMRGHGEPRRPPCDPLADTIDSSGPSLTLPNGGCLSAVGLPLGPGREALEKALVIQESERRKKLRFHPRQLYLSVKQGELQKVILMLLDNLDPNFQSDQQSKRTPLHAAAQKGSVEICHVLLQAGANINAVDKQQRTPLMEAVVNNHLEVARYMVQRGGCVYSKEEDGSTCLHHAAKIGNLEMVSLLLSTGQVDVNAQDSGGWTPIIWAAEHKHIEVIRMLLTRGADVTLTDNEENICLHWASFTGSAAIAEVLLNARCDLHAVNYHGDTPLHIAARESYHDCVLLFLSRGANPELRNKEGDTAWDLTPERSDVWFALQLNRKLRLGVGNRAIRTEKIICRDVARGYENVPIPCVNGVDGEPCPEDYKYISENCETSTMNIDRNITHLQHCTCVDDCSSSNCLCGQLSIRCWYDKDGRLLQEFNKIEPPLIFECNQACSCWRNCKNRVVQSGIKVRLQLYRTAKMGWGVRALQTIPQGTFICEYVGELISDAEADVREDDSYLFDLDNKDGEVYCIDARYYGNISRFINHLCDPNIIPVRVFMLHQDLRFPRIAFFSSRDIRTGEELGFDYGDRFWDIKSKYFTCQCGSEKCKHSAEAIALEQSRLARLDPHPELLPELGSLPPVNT
Assay: G9a AlphaLISA enzymatic activity assay
Type: biochemical
Conditions: not given

Structure (SMILES)	pIC50
COc1cc2nc3ccccc3c(NC3CCN(C(C)C)CC3)c2cc1OC [Example 46]	6.75

Same assay, conditions: G9a AlphaLISA; negative log of the IC50 value in molar

Structure (SMILES)	pIC50
CCCOc1cc2nc3c(c(NC)c2cc1OC)CCC3 [Example 2, bis(formic acid)]	5
COc1cc2nc3c(c(N[C@H]4CCCN(C)C4)c2cc1OC)CCC3 [Example 30]	7.83
COc1cc2nc3c(c(NC(C)C)c2cc1OC)CCC3 [Example 1, 6,7-dimethoxy-N-(propan-2-yl)-1H,2H,3H-cyclopenta[b]quinolin-9-amine formate]	5.97
COc1cc2nc3c(c(NC4CCN(C)CC4)c2cc1OC)CCC3 [Example 9]	7.31
COc1cc2nc3c(c(NC4CCN(C(CO)CCl)CC4)c2cc1OC)CCC3 (stereo not drawn) [Example 44]	5.49

Further lines, results first:

pIC50	Structure (SMILES)
7.1	COc1cc2nc3c(c(N[C@@H]4CCCCNC4)c2nc1OC)CCC3 [Example 402]
5.3	COc1cc2c(NC(C)C)c3c(nc2cc1OCCCCCO)CCC3 [Example 21]
8.08	CCN1CC(Nc2c3c(nc4cc(OC)c(OC)cc24)CCC3)C1 [Example 27]
7.94	COc1cc2c(NC3CCN(C(C)C)CC3)c3c(nc2cc1O)CCC3 [Example 35]
5.78	COc1cc2nc3c(c(NC4CCN(C(C)C)CC4)c2cc1OC)CCCCC3 [Example 33]
5.42	COc1cc2c(NC3CCN(C(C)C)CC3)c3c(nc2cc1OC(F)F)CCC3 [Example 36]
6.9	COc1cc2nc3c(c(NC[C@@H]4CCCNC4)c2cc1OC)CCC3 [Example 68, 6,7-dimethoxy-N-{[(3R)-piperidin-3-yl]methyl}-1H,2H,3H-cyclopenta[b]quinolin-9-amine]
7.1	COc1cc2nc3c(c(NC[C@H]4CCCNC4)c2cc1OC)CCC3 [Example 69]
6.66	COc1cc2nc3c(c(N[C@H]4CCCNC4)c2cc1OC)CCC3 [Example 28]
6.45	COc1cc2c(NC3CCN(C(C)C)CC3)c3c(nc2cc1OCCCO)CCC3 [Example 51]
7.49	COc1cc2nc3c(c(NCC4CN(C)C4)c2cc1OC)CCC3 [Example 11]
6.39	COc1cc2nc3c(c(NC4CCN(C(=O)COCc5ccccc5)CC4)c2cc1OC)CCC3 [Example 52]
7.6	CCN1CCC[C@@H](Nc2c3c(nc4cc(OC)c(OC)cc24)CCC3)CC1 [Example 64, (4R)-N-{6,7-dimethoxy-1H,2H,3H-cyclopenta[b]quinolin-9-yl}-1-ethylazepan-4-amine]
5.53	COc1cc2nc3c(c(NC4CCN(c5cccc(Cl)c5)CC4)c2cc1OC)CCC3 [Example 50]
7	COc1cc2nc3c(c(N[C@@H]4CCCN(C)CC4)c2nc1OC)CCC3 [Example 165, (4R)-N-{2,3-dimethoxy-6H,7H,8H-cyclopenta[b]1,5-naphthyridin-9-yl}-1-methylazepan-4-amine]
5.5	COc1cc2nc3c(c(NC4CC5(C4)CN(C(=O)OC(C)(C)C)C5)c2cc1OC)CCC3 [Example 17]
7.66	COc1cc2nc3c(c(NC4CCCNC4)c2cc1OC)CCC3 (stereo not drawn) [Example 10]
7.05	COc1cc2nc3c(c(NC4CCN(c5cccnc5)CC4)c2cc1OC)CCC3 [Example 23]
7.5	COc1cc2nc3c(c(N[C@@H]4CCCNCC4)c2cc1OC)CCC3 [Example 62, (4R)-N-{6,7-dimethoxy-1H,2H,3H-cyclopenta[b]quinolin-9-yl}azepan-4-amine]
7.53	COc1cc2nc3c(c(NC4CCN(c5ccccc5F)CC4)c2cc1OC)CCC3 [Example 26]
5.3	COc1cc2nc3c(c(NC4CCN(c5cccc(F)c5F)CC4)c2cc1OC)CCC3 [Example 59, 1-(2,3-difluorophenyl)-N-{6,7-dimethoxy-1H,2H,3H-cyclopenta[b]quinolin-9-yl}piperidin-4-amine]
